Marks after values point to notes of the source that are not given here.
Tests used:
[1] = tested on: human T-type voltage-gated calcium channel (hCav3.2); conditions: 0.84 µM; synthetic BPP2; cited from earlier work
Text: (§1) The short‐tailed shrew Blarina brevicauda is one of the rare venomous mammals that has potent neurotoxins in its saliva and effectively captures prey such as earthworms and small insects.^[ [25] ^] Since Blarina shrew venom causes severe pain in those bitten,^[ [26] ^] it was predicted that the venom targets specific ion channels related to pain and neurotransmission.^[ [27] ^] Recently, we isolated and characterized Blarina paralytic peptides (BPPs) 1 and 2 as major active substances against mealworms (Figure 1a).^[ [28] ^] BPP2 was chemically synthesized based on the gene sequence of the pre ...

[2] = tested on: hCav2.2; conditions: synthetic BPP2; cited from earlier work
Text: as §1

[3] = ColabFold-predicted structure, cited from earlier work
Text: To compare the structural properties of hSYN and BPP2, we next examined their three‐dimensional structures using ColabFold^[ [64] ^] (a Google Colab version of AlphaFold2^[ [65] ^] using MMSeq2^[ [66] ^]). […] The four helical structures of hSYN were hi ... || Figure 3 Proposed three‐dimensional structures of hSYN and BPP2. a) ColabFold‐predicted structure of hSYN. Disulfide bonds are highlighted in orange sticks. b) Proposed helices in the calculated structures. c) CD spectra of hSYN. Obs: Synthetic 2 (20 µM) was measured in 50 mM potassium phosphate (pH 7.0) at 25 °C. Calc: The ColabFold‐predicted structure was analyzed using the PDBMD2CD server. d) Calculated helicities (%) of each model by three methods based on the CD spectra. e) Superimposed structures of hSYN (blue white) and BPP2 (pale green). Key residues that interact between the helixes a ...

[4] = tested on: mealworms (larva of Zophobas atratus); conditions: cited from earlier work
[5] = tested on: glutamyl endopeptidase (Glu-C); conditions: core N-terminal 1–41 part of BPP2; cited from earlier work
Description: (§2) To determine the connectivity of disulfide bonds in synthetic 2, enzymatic digestion and subsequent fragment peptide analysis were performed. […] However, due to high proteolytic stability, analysis of these degraded products provid ...

[6] = tested on: trypsin; conditions: core N-terminal 1–41 part of BPP2; cited from earlier work
Description: as §2

[7] = target: human T-type voltage-gated calcium channel hCav3.2 (human) (UniProt O95180)
Chain of UniProt O95180 (O95180 whole entry): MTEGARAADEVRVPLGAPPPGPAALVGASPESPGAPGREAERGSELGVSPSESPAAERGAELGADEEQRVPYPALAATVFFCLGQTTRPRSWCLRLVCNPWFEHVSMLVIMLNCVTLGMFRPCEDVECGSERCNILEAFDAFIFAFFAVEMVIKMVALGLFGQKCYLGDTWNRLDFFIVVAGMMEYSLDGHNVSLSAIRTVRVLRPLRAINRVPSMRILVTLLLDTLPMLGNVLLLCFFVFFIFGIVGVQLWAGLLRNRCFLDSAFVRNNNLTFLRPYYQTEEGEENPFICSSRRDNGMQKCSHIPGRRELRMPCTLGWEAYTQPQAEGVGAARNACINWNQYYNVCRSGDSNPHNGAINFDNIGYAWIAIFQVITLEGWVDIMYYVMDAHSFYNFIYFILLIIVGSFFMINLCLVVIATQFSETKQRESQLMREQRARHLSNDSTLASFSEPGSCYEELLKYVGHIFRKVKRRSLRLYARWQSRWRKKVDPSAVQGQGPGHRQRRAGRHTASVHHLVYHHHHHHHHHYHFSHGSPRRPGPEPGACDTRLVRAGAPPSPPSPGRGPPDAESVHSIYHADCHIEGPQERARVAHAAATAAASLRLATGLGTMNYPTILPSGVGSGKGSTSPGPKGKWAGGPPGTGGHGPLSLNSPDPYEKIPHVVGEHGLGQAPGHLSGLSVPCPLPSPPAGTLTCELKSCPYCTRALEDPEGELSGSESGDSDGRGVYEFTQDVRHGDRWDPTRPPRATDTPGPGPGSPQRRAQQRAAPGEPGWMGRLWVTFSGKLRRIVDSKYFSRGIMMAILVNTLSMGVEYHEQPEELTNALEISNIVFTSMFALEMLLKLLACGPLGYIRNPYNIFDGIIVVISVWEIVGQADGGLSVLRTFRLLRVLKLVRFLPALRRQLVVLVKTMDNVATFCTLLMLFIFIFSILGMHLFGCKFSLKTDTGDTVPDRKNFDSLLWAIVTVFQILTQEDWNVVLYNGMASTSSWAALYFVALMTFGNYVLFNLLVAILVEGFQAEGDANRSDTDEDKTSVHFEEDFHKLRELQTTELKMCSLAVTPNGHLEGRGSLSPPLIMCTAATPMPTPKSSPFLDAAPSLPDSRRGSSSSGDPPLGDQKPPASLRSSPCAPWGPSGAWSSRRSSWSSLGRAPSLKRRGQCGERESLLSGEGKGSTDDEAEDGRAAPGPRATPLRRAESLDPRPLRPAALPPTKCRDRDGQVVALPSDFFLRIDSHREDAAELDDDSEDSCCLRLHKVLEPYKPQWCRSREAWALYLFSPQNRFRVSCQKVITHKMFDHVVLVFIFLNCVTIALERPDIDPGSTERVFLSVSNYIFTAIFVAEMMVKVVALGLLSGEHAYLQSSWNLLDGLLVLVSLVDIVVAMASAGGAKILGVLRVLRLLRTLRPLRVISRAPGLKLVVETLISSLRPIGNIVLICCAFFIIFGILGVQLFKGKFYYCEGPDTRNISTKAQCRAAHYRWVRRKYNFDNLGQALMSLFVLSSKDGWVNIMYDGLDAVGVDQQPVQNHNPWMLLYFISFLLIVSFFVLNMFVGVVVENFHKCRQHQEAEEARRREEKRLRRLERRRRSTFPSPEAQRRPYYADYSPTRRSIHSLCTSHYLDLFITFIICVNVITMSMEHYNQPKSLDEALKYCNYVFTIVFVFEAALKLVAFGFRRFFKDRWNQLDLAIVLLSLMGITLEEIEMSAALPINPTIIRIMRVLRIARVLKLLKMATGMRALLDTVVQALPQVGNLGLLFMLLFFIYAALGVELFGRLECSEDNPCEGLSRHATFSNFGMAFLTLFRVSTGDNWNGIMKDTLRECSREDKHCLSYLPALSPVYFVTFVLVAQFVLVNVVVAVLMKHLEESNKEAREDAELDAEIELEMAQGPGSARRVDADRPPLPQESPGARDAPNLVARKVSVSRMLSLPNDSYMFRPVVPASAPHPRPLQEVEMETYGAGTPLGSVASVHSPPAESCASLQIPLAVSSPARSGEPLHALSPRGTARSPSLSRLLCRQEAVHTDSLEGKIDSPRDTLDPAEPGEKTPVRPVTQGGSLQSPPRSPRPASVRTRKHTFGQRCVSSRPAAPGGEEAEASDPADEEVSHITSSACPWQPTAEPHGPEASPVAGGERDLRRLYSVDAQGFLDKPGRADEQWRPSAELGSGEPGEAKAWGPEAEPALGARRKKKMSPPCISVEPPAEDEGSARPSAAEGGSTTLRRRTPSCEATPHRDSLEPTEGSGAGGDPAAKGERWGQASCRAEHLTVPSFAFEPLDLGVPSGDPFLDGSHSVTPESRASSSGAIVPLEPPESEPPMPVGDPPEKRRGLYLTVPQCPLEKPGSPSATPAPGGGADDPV

Substance | hyperpolarization shift in the activation of hCav3.2 [1] | effect on hCav2.2 [2] | Helicity, calculated, BestSel ([3]; BestSel server) [%] | Helicity, calculated, K2D3 ([3]; K2D3 server) [%] | Helicity, calculated, PDBMD2CD ([3]; PDBMD2CD server) [%] | Paralyzed/total numbers ([4]; i.p., 5.6 µg/g bodyweight) | paralytic effect on mealworms ([4]; synthetic BPP2, intraperitoneal, 5.6 µg g−1 body weight, immediately after administration) | proteolytic stability toward Glu-C [5] | proteolytic stability toward trypsin [6] | hyperpolarization shift of hCav3.2 activation at 0.74 µM hSYN (2); whole-cell patch clamp on HEK293T cells expressing hCav3.2, n = 5 [7] [mV]
Blarina paralytic peptide 2 [BPP2] | –11 mV | no significant effect on hCav2.2 | 48.9 | 54.9 | 55.7 | 3/3 ^b) | reliably induces paralysis and convulsions in mealworms | highly stable | highly stable | 
human synenkephalin N-terminal part [1–53] (hSYN), Type II disulfide bond connectivity, synthetic compound 2 (peptide) |  |  |  |  |  |  |  |  |  | -15

Source: paper PMC12207360, “Hyperpolarization Modulation of the T‐Type hCav3.2 Channel by Human Synenkephalin [1–53], a Shrew Neurotoxin Analogue without Paralytic Effects” (Angewandte Chemie (International Ed. in English), 2025)
